Data on two compounds can be found in paper PMC10167629, “Computer-aided design of a cyclic di-AMP synthesizing enzyme CdaA inhibitor” (microLife, 2023).

Experiment [1] concerns the target T1, Lm CdaA (∆100CdaA) (Listeria monocytogenes, UniProt Q8Y5E4).
T1 construct: gene dacA; DAC domain, lacks transmembrane domain and linker (first 100 residues deleted); N-terminal GST tag cut with PreScission protease; plasmid pGEXpBP33, E. coli BL21(DE3); residues to at least 268 mentioned (96-104 and 256-268 disordered); non-catalytic back-to-back dimer in crystal
T1 sequence (Q8Y5E4 101-273): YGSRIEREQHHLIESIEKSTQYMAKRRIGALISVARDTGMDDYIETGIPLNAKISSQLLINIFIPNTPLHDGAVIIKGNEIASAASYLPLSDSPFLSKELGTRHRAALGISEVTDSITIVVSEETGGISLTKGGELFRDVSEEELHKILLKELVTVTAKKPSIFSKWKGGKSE
Nature of the experiment: ITC, […] binding model.

The target in experiment [2] is T1, Lm CdaA (∆100CdaA). Briefly: crystal structure by soaking. Particulars: active site, chain A. Format: binding.

In turn, `CC(=O)Nc1nc(C)c(-c2csc(N)n2)s1` [compound 7] showed a Kd at Lm CdaA (∆100CdaA) [1] of 16.3 ± 2.5 µM.

As to `Nc1ncnc2c1ncn2[C@@H]1O[C@H](CO)[C@@H](O)[C@H]1O` [adenosine], at Lm CdaA (∆100CdaA) [2], the “crystal structure by soaking” value is reported as “we have determined crystal structures of CdaA complexes with adenine (Fig. 3B), adenosine (Fig. 3C)”.
